We go through three compounds from ChEMBL document CHEMBL1641435, “DR396, an apoptotic DNase γ inhibitor, attenuates high mobility group box 1 release from apoptotic cells” (Bioorg Med Chem, 2011).

The structures appear in SMILES notation. The source made the active and inactive calls. The calls are words filed in the database; no cut-off is given here.

One assay relates to HeLa S3. Put plainly: Inhibition of HMGB1 release in human staurosporine-induced HeLaS3 cells at 100 uM treated 1 hr before staurosporine challenge measured after 24 hrs by Western blotting. Type of assay: functional.
The target of assay [1] is T1, Deoxyribonuclease gamma (Homo sapiens) (UniProt Q13609).
T1 sequence (whole entry): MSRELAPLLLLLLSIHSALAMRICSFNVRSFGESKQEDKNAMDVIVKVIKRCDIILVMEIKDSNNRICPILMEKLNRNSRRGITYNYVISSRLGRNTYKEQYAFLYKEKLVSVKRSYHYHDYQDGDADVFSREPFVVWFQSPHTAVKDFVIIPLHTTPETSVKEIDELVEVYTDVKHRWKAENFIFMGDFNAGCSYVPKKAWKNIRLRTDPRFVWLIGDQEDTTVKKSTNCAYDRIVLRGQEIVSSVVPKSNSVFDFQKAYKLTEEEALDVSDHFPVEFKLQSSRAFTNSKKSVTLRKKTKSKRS
Put plainly: (§1) Inhibition of human recombinant DNase gamma expressed in Rosetta DE3 cells assessed as increase in acid soluble DNA after 30 mins. Format: cell-based.

The target of assay [2] is T2, Deoxyribonuclease gamma (Homo sapiens, UniProt Q13609).
T2 sequence (Q13609 whole entry): T1 sequence (whole entry)
The description is as §1. Format: cell-based.

Assay [3] concerns the target T1, Deoxyribonuclease gamma (Homo sapiens). The following applies: HeLa S3; 30 uM.
Description: Inhibition of DNase gamma-mediated nucleosomal DNA fragmentation expressed in human staurosporine-induced HeLaS3 cells at 30 uM treated 1 hr before staurosporine challenge measured after 24 hrs by Western blotting
The target in assay [4] is T2, Deoxyribonuclease gamma. Briefly: Inhibition of DNase gamma-mediated HMGB1 release expressed in human staurosporine-induced HeLaS3 cells treated 1 hr before staurosporine challenge measured after 24 hrs by Western blotting. For orientation: In western blotting, separated proteins are transferred to a membrane and probed.

As usually defined, the inhibition is the relative decrease from the control value, in per cent. As usually defined, the IC50 is the point on the concentration scale where inhibition reaches its midpoint. Turning to `O=S(=O)(O)c1cc(O)c2c(O)c(/N=N/c3cccc4ccccc34)c(S(=O)(=O)O)cc2c1` [PONTACYL VIOLET 6R], in the assay on HeLa S3, testing at 100 µM gave an inhibition of 50%. In addition, the inhibition result in assay [1] was “Dose-dependent effect”. Moreover, the IC50 at Deoxyribonuclease gamma [2] came out at 16.1 µM.

Consider `O=C(O)c1ccc(Nc2nc(Cl)nc(Cl)n2)cc1-c1c2ccc(=O)cc-2oc2cc(O)ccc12`, for which the values for the inhibition in assay [3] and in assay [1] were 50% and “Dose-dependent effect”, respectively. The values for the IC50 at Deoxyribonuclease gamma [4] and on Deoxyribonuclease gamma [2] were 30 µM and 3.2 µM, respectively. Also, the inhibition entry in the assay on HeLa S3 was “Active”.

In the assay with HeLa S3, `O=C(N[C@H](CC1CCCCC1)C(=O)O)OCC1c2ccccc2-c2ccccc21` displayed an inhibition at 100 µM of 20%. Further, the inhibition entry in assay [1] is “Dose-dependent effect”. In addition, the 50% inhibitory concentration (IC50) on Deoxyribonuclease gamma [2] came to 34.5 µM.
